Assay type in all cases: biochemical
The target of test [1] is JAK2. The test is described as follows: In vitro JAK kinase enzymatic assay (JAK2). The method, then: (§1) The substrate is poly-glutamic acid-tyrosin peptide, Poly-(GT) (4:1) (Sigma-Aldrich, catalog P7244). [γ-^33P]-ATP is purchased from Perkin Elmer (catalog NEG602H001MC) (EasyTides). Kinase reaction buffer is 100 mM HEPES (pH 7.5), 20 mM MgCl2, 2 mM EGTA, 0.02% Brij 35. The JAK1 (Invitrogen Catalog PV4774), JAK2 (Invitrogen Catalog PV4210) and TYK2 Invitrogen Catalog PV4790) enzymatic assays are performed in the similar way. JAK1 and JAK2 substrate is Poly-(GT) (4:1), but TYK2 substrate is peptide with sequences of […]. The reaction is carried for 2 hours at room temperature. […] The unreacted phosphate are washed away without interfering with the detection of real phosphorylated products. The final product can be detected by instruments such as scintillation counter, top counter or phosphoimager. The enzymatic assays can also performed in assays described those described in the art [e.g., Ma H et al, Expert Opin. Drug Discov.
(§2) Signal=Bottom+(Top−Bottom)/(1+10^((Log(IC50)−Log [I])*Hill Slope) Bottom and Top refer to the post and pre-transition baselines, respectively.

In a further test the target is JAK3 (Homo sapiens (Human), UniProt P52333). The test is described as follows: In vitro JAK kinase enzymatic assay (JAK3). The procedure:
(§3) The JAK3 kinase is recombinant human protein (catalytic domain, amino acids 781-1124 with GST-tag), expressed in insect cells (Invitrogen Catalog PV3855). The substrate is poly-glutamic acid-tyrosin peptide, Poly-(GT) (4:1) (Sigma-Aldrich, catalog P7244). [γ-^33P]-ATP is purchased from Perkin Elmer (catalog NEG602H001MC) (EasyTides). Kinase reaction buffer is 100 mM HEPES (pH 7.5), 20 mM MgCl2, 2 mM EGTA, 0.02% Brij 35. The JAK1 (Invitrogen Catalog PV4774), JAK2 (Invitrogen Catalog PV4210) and TYK2 Invitrogen Catalog PV4790) enzymatic assays are performed in the similar way. JAK1 and JAK2 substrate is Poly-(GT) (4:1), but TYK2 substrate is peptide with sequences of […]. The reaction is carried for 2 hours at room temperature. After the reactions are finished or stopped, portion or all the reaction mixtures are transferred onto filter paper P81 Phosphocellulose paper (Whatman catalog 3698-915) for binding the final radioisotope labeled products. The unreacted phosphate are washed away without interfering with the detection of real phosphorylated products. The final product can be detected by instruments such as scintillation counter, top counter or phosphoimager. The enzymatic assays can also performed in assays described those described in the art [e.g., Ma H et al, Expert Opin. Drug Discov. 3, 607-621 (2008); Olive D M, Expert Rev Proteomics, 1, 327-341 (2004)].
as §2

The next test addresses JAK1 (Homo sapiens, UniProt P23458). The experiment in a line: In vitro JAK kinase enzymatic assay (JAK1). The method, then:
as §3, §2

The target of another test is TYK2 (Homo sapiens (Human), UniProt P29597). The experiment in a line: In vitro JAK kinase enzymatic assay (TYK2). The procedure:
as §3, §2

For test [2], the target named is JAK2 (Homo sapiens, UniProt O60674). The test is described as follows: In vitro JAK kinase enzymatic assay (JAK2). The procedure:
as §1, §2

JAK3, sequence (P52333 781-1124): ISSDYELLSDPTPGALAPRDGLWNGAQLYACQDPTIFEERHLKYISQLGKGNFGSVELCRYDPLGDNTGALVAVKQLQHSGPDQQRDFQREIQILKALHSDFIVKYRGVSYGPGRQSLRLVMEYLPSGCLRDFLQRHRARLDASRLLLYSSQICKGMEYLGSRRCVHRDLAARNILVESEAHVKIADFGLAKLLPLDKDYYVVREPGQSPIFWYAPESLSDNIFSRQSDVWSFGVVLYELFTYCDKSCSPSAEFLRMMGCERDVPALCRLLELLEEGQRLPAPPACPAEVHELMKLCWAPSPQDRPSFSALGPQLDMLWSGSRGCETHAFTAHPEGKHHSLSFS
TYK2, sequence (P29597 whole entry): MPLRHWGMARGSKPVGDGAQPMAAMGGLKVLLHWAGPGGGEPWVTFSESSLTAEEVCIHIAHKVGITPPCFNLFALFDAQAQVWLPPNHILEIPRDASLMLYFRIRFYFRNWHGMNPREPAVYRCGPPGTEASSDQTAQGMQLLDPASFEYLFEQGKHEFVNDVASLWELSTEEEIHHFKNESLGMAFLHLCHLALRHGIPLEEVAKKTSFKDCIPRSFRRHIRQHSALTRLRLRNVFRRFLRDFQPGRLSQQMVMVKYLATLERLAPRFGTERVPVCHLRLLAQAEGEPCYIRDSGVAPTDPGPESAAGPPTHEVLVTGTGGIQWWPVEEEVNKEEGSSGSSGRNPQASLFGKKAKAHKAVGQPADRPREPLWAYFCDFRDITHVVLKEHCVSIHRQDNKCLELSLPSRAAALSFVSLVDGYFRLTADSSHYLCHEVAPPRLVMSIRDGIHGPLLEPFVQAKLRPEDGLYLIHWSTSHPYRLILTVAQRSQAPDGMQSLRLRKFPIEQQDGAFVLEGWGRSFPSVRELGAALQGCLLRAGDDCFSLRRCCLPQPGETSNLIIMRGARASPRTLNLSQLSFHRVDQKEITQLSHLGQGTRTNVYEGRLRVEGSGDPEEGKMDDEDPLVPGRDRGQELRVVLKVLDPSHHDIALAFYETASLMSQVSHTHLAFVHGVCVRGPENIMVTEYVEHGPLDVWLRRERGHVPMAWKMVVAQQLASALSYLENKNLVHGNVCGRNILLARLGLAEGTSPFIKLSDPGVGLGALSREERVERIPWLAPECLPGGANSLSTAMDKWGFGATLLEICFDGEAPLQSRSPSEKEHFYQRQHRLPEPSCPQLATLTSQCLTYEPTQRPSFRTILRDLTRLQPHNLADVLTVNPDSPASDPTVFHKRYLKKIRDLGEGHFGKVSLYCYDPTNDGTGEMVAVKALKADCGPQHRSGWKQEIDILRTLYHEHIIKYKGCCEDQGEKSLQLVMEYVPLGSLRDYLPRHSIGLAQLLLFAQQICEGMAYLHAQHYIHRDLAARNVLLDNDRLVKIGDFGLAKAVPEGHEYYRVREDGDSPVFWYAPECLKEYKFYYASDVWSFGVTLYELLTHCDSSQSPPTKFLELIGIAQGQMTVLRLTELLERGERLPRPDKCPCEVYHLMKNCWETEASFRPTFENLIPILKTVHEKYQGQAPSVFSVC
JAK2 (Homo sapiens, UniProt O60674), sequence (O60674 whole entry, looked up): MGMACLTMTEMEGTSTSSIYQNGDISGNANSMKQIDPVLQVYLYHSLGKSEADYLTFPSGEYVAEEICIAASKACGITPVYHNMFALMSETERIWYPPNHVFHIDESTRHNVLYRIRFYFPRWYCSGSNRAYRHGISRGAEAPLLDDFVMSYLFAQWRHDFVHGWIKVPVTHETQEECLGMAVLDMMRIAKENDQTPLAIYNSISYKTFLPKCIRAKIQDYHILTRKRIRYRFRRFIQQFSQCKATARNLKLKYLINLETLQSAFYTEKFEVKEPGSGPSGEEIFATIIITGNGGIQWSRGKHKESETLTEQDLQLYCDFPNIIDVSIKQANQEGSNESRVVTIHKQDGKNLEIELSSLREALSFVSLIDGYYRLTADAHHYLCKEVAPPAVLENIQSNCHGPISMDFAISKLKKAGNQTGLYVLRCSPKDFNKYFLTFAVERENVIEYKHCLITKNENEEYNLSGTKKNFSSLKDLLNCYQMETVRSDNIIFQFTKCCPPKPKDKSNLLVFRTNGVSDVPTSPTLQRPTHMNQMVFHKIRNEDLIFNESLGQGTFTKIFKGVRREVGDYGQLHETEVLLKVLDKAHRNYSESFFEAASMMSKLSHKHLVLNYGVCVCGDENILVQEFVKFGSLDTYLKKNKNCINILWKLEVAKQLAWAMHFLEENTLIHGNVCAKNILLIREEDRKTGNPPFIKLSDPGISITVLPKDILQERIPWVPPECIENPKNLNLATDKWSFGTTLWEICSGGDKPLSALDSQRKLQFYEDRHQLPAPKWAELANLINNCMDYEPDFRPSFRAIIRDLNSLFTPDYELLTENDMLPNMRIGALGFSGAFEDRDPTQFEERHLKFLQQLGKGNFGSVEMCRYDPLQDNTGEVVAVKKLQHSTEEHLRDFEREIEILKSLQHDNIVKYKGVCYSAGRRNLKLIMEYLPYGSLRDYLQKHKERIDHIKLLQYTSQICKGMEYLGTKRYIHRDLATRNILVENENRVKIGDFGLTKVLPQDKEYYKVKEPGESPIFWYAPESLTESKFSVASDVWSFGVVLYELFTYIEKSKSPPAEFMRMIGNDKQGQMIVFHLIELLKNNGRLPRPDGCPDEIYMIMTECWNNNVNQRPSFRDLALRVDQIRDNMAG

What is called IC50 is the concentration needed to halve the response being measured. Read a high IC50 as weaker potency in that assay. Regarding `O=C(Cn1cncn1)Nc1cccc(-c2cnc3ccccc3n2)c1` [Example 7, N-[3-(quinoxalin-2-yl)phenyl]-2-(1H-1,2,4-triazol-1-yl)acetamide], the IC50 at JAK2 [1], against JAK3, against JAK1 and against TYK2 was greater than 50 µM in each case.

For the compound `CC(=O)SCC(=O)Nc1cccc(-c2cnc3ccccc3n2)c1` [Example 30, S-2-oxo-2-(3-(quinoxalin-2-yl)phenylamino)ethyl ethanethioate], the IC50 at JAK2 [1], on JAK3, against JAK1 and at TYK2 was greater than 10 µM in each case.

Consider `NS(=O)(=O)CCC(=O)Nc1cccc(-c2cnc3ccccc3n2)c1` [Example 36, 3-(aminosulfonyl)-N-[3-(2-quinoxalinyl)phenyl]propanamide], for which the IC50 on JAK2 [1], on JAK3, at JAK1 and on TYK2 was greater than 10 µM throughout.

Turning to `O=C(CN1CCOCC1)Nc1cccc(-c2cnc3ccccc3n2)c1` [Example 20, 2-morpholino-N-(3-(quinoxalin-2-yl)phenyl)acetamide], the IC50 was greater than 50 µM on JAK2 [1], 34 µM against JAK3, greater than 50 µM on JAK1 and greater than 50 µM against TYK2.

Consider “2-[4-(4-chlorophenyl)piperazin-1-yl]-N-(3-(quinoxalin-2-yl)phenyl)acetamide [Example 4]”, for which the half-maximal inhibitory concentration (IC50) was greater than 20 µM at JAK2 [2], 2.7 µM at JAK3, greater than 20 µM at JAK1 and greater than 20 µM on TYK2.

`O=C(CCCCl)Nc1cccc(-c2cnc3ccccc3n2)c1` [Example 5, 4-chloro-N-[3-(quinoxalin-2-yl)phenyl]butanamide]: the IC50 against JAK2 [1], at JAK3, at JAK1 and at TYK2 was greater than 50 µM throughout.

With `CCOC(=O)CC(=O)Nc1cccc(-c2cnc3ccccc3n2)c1` [Example 32, ethyl 3-oxo-3-(3-(quinoxalin-2-yl)phenylamino)propanoate], the IC50 on JAK2 [1], against JAK3, on JAK1 and on TYK2 was greater than 10 µM each time.

For the compound `CC(Cl)C(=O)Nc1cccc(-c2cnc3ccccc3n2)c1` (stereo not drawn) [Example 21, 2-chloro-N-(3-(quinoxalin-2-yl)phenyl)propanamide], the IC50 on JAK2 [2] is greater than 50 µM; on JAK3, 0.33 µM; at JAK1, greater than 50 µM; on TYK2, greater than 50 µM.

Regarding `CC(=O)OCC(=O)Nc1cccc(-c2cnc3ccccc3n2)c1` [Example 28, 2-oxo-2-(3-(quinoxalin-2-yl)phenylamino)ethyl acetate], the IC50 is greater than 10 µM against JAK2 [1], 150 µM against JAK3, greater than 10 µM at JAK1 and greater than 10 µM against TYK2.

Turning to `O=C(CN1CCC(O)CC1)Nc1cccc(-c2cnc3ccccc3n2)c1` [Example 34, 2-(4-hydroxypiperidin-1-yl)-N-(3-(quinoxalin-2-yl)phenyl)acetamide], the IC50 on JAK2 [2], at JAK3, at JAK1 and at TYK2 was greater than 10 µM in each case.

On to `COc1ccc(NC(=O)Nc2cccc(-c3cnc4ccccc4n3)c2)cc1` [Example 10, 1-(4-methoxyphenyl)-3-[3-(quinoxalin-2-yl)phenyl]urea], for which the IC50 on JAK2 [1], against JAK3, against JAK1 and on TYK2 was greater than 50 µM throughout.

On to `CSCC(=O)Nc1cccc(-c2cnc3ccccc3n2)c1` [Example 25, 2-(methylthio)-N-(3-(quinoxalin-2-yl)phenyl)acetamide], for which the 50% inhibitory concentration (IC50) against JAK2 [1], against JAK3, at JAK1 and on TYK2 was greater than 10 µM in each case.

With `CS(=O)(=O)Nc1cccc(-c2cnc3ccccc3n2)c1` [Example 15, N-[3-(quinoxalin-2-yl)phenyl]methanesulfonamide], the IC50 was 18.5 µM on JAK2 [1], greater than 50 µM against JAK3, greater than 50 µM against JAK1 and greater than 50 µM on TYK2.

With “1-methyl-3-[3-(quinoxalin-2-yl)phenyl]thiourea [Example 11]”, the IC50 against JAK2 [2] was 25.5 µM; against JAK3, greater than 50 µM; against JAK1, greater than 50 µM; on TYK2 it was greater than 50 µM.

Turning to `CC(Nc1cccc(-c2cnc3ccccc3n2)c1)=C1CCOC1=O` (racemic) [Example 31, (E/Z)-3-(1-(3-(quinoxalin-2-yl)phenylamino)ethylidene)dihydrofuran-2(3H)-one], the IC50 on JAK3, at JAK1 and against TYK2 was greater than 10 µM each time.

Turning to `C=CCC(=O)Nc1cccc(-c2cnc3ccccc3n2)c1` [Example 23, N-(3-(quinoxalin-2-yl)phenyl)but-3-enamide], the IC50 against JAK2 [1], against JAK3, on JAK1 and against TYK2 was greater than 10 µM in each case.

As for `CN(C)CC(=O)Nc1cccc(-c2cnc3ccccc3n2)c1` [Example 2, N^2,N^2-dimethyl-N^1-(3-quinoxalin-2-ylphenyl)glycinamide], the half-inhibitory concentration (IC50) against JAK2 [1], on JAK3, on JAK1 and on TYK2 was greater than 50 µM each time.

Turning to `O=C(CN1CCNCC1)Nc1cccc(-c2cnc3ccccc3n2)c1` [Example 35, 2-(piperazin-1-yl)-N-(3-(quinoxalin-2-yl)phenyl)acetamide], the IC50 at JAK2 [1] was greater than 20 µM; against JAK3 it was 13 µM; at JAK1, greater than 20 µM; against TYK2 it was greater than 20 µM.

Turning to `O=C(CN1CCN(c2ccncc2)CC1)Nc1cccc(-c2cnc3ccccc3n2)c1` [Example 33, 2-(4-(pyridin-4-yl)piperazin-1-yl)-N-(3-(quinoxalin-2-yl)phenyl)acetamide], the IC50 against JAK2 [1], against JAK3, against JAK1 and at TYK2 was greater than 10 µM throughout.

`O=C(Nc1cccc(-c2cnc3ccccc3n2)c1)c1ccco1` [Example 12, N-[3-(quinoxalin-2-yl)phenyl]furan-2-carboxamide]: the IC50 against JAK2 [1] is 24.6 µM; against JAK3, greater than 50 µM; at JAK1, greater than 50 µM; against TYK2 it was greater than 50 µM.

Take `O=C(CCCl)Nc1cccc(-c2cnc3ccccc3n2)c1` [Example 19, 3-chloro-N-[3-(quinoxalin-2-yl)phenyl]propanamide]: the IC50 at JAK2 [2], at JAK3, against JAK1 and at TYK2 was greater than 50 µM each time.

For the compound “N-[3-(quinoxalin-2-yl)phenyl]cyclopropanecarboxamide [Example 14]”, the half-maximal inhibitory concentration (IC50) against JAK3, on JAK1 and at TYK2 was greater than 50 µM in each case.

Regarding `O=C(CC(=O)C(F)(F)F)Nc1cccc(-c2cnc3ccccc3n2)c1` [Example 26, 4,4,4-trifluoro-3-oxo-N-(3-(quinoxalin-2-yl)phenyl)butanamide], the IC50 against JAK2 [1], on JAK3, on JAK1 and against TYK2 was greater than 10 µM in each case.

Take `CN1CCN(CC(=O)Nc2cccc(-c3cnc4ccccc4n3)c2)CC1` [Example 17, 2-(4-methylpiperazin-1-yl)-N-[3-(quinoxalin-2-yl)phenyl]acetamide]: the IC50 against JAK2 [1], against JAK3, on JAK1 and against TYK2 was greater than 50 µM throughout.

Regarding `O=C(CN1CCCC1)Nc1cccc(-c2cnc3ccccc3n2)c1` [Example 3, 2-pyrrolidin-1-yl-N-(3-quinoxalin-2-ylphenyl)acetamide], the IC50 against JAK2 [1], against JAK3, on JAK1 and against TYK2 was greater than 20 µM throughout.

`CS(=O)(=O)OCC(=O)Nc1cccc(-c2cnc3ccccc3n2)c1` [Example 27, 2-oxo-2-(3-(quinoxalin-2-yl)phenylamino)ethyl methanesulfonate]: the IC50 on JAK2 [1] is greater than 10 µM; against JAK3 it was 0.0006 µM; at JAK1, greater than 10 µM; at TYK2, greater than 10 µM.

The record behind these values is US8592415B2, “Selective kinase inhibitors” (Reaction Biology Corp., priority 2009, dated 2013).
